# Reference: ChEMBL document CHEMBL1137242, “Application of azide-alkyne cycloaddition 'click chemistry' for the synthesis of Grb2 SH2 domain-binding macrocycles” (Bioorg Med Chem Lett, 2006)
# Starred links: 1 amine or outer side, 2 acyl side, 3 side chain; linkers in the order of their positions; H or OH if unused. Non-standard residues stand in square brackets, D forms with d. Residues, ends and D or L forms follow the SMILES beside them. *: point of attachment. Pmp = N[C@@H](Cc1ccc(CP(=O)(O)O)cc1)C(=O)O; X1 = O=C(Cn1cc(CCCN[*:1])nn1)[*:2]; Ac6c = NC1(C(=O)O)CCCCC1; NHPentyl = CCCCCN*
# Molecular target: Growth factor receptor-bound protein 2 (Homo sapiens, UniProt P62993)
# Sequence (P62993 whole entry, the tested form may be a part): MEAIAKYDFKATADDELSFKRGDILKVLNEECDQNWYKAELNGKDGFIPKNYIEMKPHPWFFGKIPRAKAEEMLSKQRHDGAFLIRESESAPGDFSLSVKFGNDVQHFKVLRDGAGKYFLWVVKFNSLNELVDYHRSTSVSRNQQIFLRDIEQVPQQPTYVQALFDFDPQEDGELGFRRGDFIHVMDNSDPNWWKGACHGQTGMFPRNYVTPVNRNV
# Test: Binding affinity to Grb2-SH2 domain
row,SMILES,Kd [nM]
1,NC(=O)C[C@@H]1NC(=O)C2(CCCCC2)NC(=O)[C@@H](Cc2ccc(CP(=O)(O)O)cc2)NC(=O)Cn2cc(nn2)CCCNC(=O)[C@H](CC(N)=O)NC(=O)C2(CCCCC2)NC(=O)[C@@H](Cc2ccc(CP(=O)(O)O)cc2)NC(=O)Cn2cc(nn2)CCCNC1=O,> 1000
2,NC(=O)C[C@@H]1NC(=O)C2(CCCCC2)NC(=O)[C@@H](Cc2ccc(CP(=O)(O)O)cc2)NC(=O)Cn2cc(nn2)CCCNC1=O,> 1000
3,NC(=O)C[C@@H]1NC(=O)C2(CCCCC2)NC(=O)[C@H](Cc2ccc(CP(=O)(O)O)cc2)NC(=O)Cn2cc(nn2)CCCNC1=O,230
4,C#CCCCNC(=O)[C@H](CC(N)=O)NC(=O)C1(NC(=O)[C@H](Cc2ccc(CP(=O)(O)O)cc2)NC(=O)CN=[N+]=[N-])CCCCC1,> 1000
5,CCCCCNC(=O)[C@H](CC(N)=O)NC(=O)C1(NC(=O)[C@H](Cc2ccc(CP(=O)(O)O)cc2)NC(=O)Cn2cc(CCCNC(=O)[C@H](CC(N)=O)NC(=O)C3(NC(=O)[C@H](Cc4ccc(CP(=O)(O)O)cc4)NC(C)=O)CCCCC3)nn2)CCCCC1 (Ac-[Pmp][Ac6c]N[X1][Pmp][Ac6c]N-NHPentyl),1.1
6,NC(=O)C[C@@H]1NC(=O)C2(CCCCC2)NC(=O)[C@H](Cc2ccc(CP(=O)(O)O)cc2)NC(=O)Cn2cc(nn2)CCCNC(=O)[C@H](CC(N)=O)NC(=O)C2(CCCCC2)NC(=O)[C@H](Cc2ccc(CP(=O)(O)O)cc2)NC(=O)Cn2cc(nn2)CCCNC1=O,1.8
